Data published in patent publication US12195427B2, “MASP-2 inhibitors and methods of use” (priority 2018, dated 2025).

Biological target: MASP-2 CCP2-SP (Homo sapiens (Human), UniProt O00187)
Assay: MASP-2 co-crystallization, X-ray crystallography and structure analysis (H-bonds, van der Waals contacts);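 for Ligand-pharmacophore element distance, pharmacophore element C2: distance from averaged pharmacophore element to bound ligand; missing value means element absent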;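 for Ligand-pharmacophore element distance, pharmacophore element C3: distance from averaged pharmacophore element to bound ligand; missing value means element absent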;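 for Ligand-pharmacophore element distance, pharmacophore element C4: distance from averaged pharmacophore element to bound ligand; missing value means element absent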;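 for Ligand-pharmacophore element distance, pharmacophore element C5: distance from averaged pharmacophore element to bound ligand; missing value means element absent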
Set-up: van der Waals contact distance, MASP-2 HIS 483 atom CD2 / van der Waals contact distance, MASP-2 HIS 483 atom NE2 / van der Waals contact distance, SER 654 C to compound atom / van der Waals contact distance, SER 654 O to compound atom / van der Waals contact distance, TRP 655 C to compound atom / van der Waals contact distance, MASP-2 GLY 528 atom CA / van der Waals contact distance TRP 655 atom CZ3 / van der Waals contact distance TRP 655 atom N / van der Waals contact distance TRP 655 atom CE3 / van der Waals contact distance GLY 656 atom C / van der Waals contact distance GLY 656 atom CA / van der Waals contact distance GLY 656 atom O / van der Waals contact distance, MASP-2 TYR 607 atom CD1 / van der Waals contact distance, MASP-2 PRO 606 atom O / d(C3,CA1) / d(CA1,N1)2 / d(H4,O1) / d(H4,O2) / d(O1,O2) / d(CA1,O2) / d(CA6,O1) / d(CA6,O2) / d(CA1,C5) / d(O2,H3) / d(N2,C2) / d(CA5,N2) / d(N2,C4) / d(N2,C6) / d(N2,CA3) / d(N2,O3) / d(O4,H2): unit not given beside the values
Conditions: for Ligand-pharmacophore element distance, pharmacophore element C2 / Ligand-pharmacophore element distance, pharmacophore element C3 / Ligand-pharmacophore element distance, pharmacophore element C4 / Ligand-pharmacophore element distance, pharmacophore element C5 / Ligand-pharmacophore element distance, pharmacophore element C6 / Ligand-pharmacophore element distance, pharmacophore element C7 / Ligand-pharmacophore element distance, pharmacophore element CA1 / Ligand-pharmacophore element distance, pharmacophore element CA2 / Ligand-pharmacophore element distance, pharmacophore element CA3 / Ligand-pharmacophore element distance, pharmacophore element CA4 / Ligand-pharmacophore element distance, pharmacophore element CA5 / Ligand-pharmacophore element distance, pharmacophore element CA6: Table A4-1; for d(CA1,O1) / d(CA1,O2) / d(H4,O1) / d(H4,O2) / d(O1,O2): Table A5-1 pharmacophore: distance between elements, S2/S1 region; for a(CA1, O1, O2) / a(O1, O2, H4): Table A6-1 pharmacophore angle; for a(O1, O2, H3) / a(O1, O2, N2) / a(O2, N2, C2) / a(O2, N2, CA2): Table A6-2 pharmacophore angle; for Pharmacophore torsion angle a(H4, O1, O2, H3) / Pharmacophore torsion angle a(H4, O1, O2, N2) / Pharmacophore torsion angle a(O1, H4, O2, CA1) / Pharmacophore torsion angle a(O1, O2, N2, C2): Table A7-1; for Pharmacophore protein distance to MET_658 (first MET_658 column) / Pharmacophore protein distance to MET_658 (second MET_658 column) / Pharmacophore protein distance to GLY_528 / Pharmacophore protein distance to PHE_529 / Pharmacophore protein distance to PRO_608 / Pharmacophore protein distance to SER_611 / Pharmacophore protein distance to TRP_655: Table A8-6, nearest protein atom in cell to the left; for Pharmacophore protein distance to MET_658 (first MET_658 column): 6th residue column; for Pharmacophore protein distance to MET_658 (second MET_658 column): 9th residue column; for Pharmacophore protein distance to TRP_655: pharmacophore elements C6, CA3, O3, H1
In short: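 Inhibitor complexes were obtained by soaking crystals of E. coli-expressed human MASP-2 CCP2-SP constructs, then flash-cooling in liquid nitrogen. Structures solved by molecular replacement (1Q3X search model) from synchrotron diffraction; where several poses existed, only one was analyzed, and nonbonded contacts listed can include H-bonds.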

[1] = Table A5-2 pharmacophore distance, S3/S4 region
[2] = between pharmacophore elements of the bound compound
[3] = Table A7-2, between pharmacophore elements of the bound compound

MASP-2 CCP2-SP, sequence (O00187 445-686): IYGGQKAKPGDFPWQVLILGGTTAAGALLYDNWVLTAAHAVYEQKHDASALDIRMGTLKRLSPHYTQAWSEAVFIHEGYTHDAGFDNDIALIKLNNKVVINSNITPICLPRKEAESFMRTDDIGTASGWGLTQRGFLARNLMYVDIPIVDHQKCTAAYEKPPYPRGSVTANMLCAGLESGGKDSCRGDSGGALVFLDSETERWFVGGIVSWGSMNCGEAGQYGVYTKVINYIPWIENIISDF
MASP-2 CCP2-SP, sequence (O00187 364-432 partner): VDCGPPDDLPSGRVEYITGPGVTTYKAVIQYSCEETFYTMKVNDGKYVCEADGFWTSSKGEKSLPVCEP

| SMILES | Ligand-pharmacophore element distance, pharmacophore element C2 | Ligand-pharmacophore element distance, pharmacophore element C3 | Ligand-pharmacophore element distance, pharmacophore element C4 | Ligand-pharmacophore element distance, pharmacophore element C5 | Ligand-pharmacophore element distance, pharmacophore element C6 | Ligand-pharmacophore element distance, pharmacophore element C7 | Ligand-pharmacophore element distance, pharmacophore element CA1 | Ligand-pharmacophore element distance, pharmacophore element CA2 | Ligand-pharmacophore element distance, pharmacophore element CA3 | Ligand-pharmacophore element distance, pharmacophore element CA4 | Ligand-pharmacophore element distance, pharmacophore element CA5 | Ligand-pharmacophore element distance, pharmacophore element CA6 | d(CA1,O1) | d(CA1,O2) | d(H4,O1) | d(H4,O2) | d(O1,O2) | d(O2,H3) [1] | d(O2,N2) [1] | a(CA1, O1, O2) | also measured |
| --- | --- | --- | --- | --- | --- | --- | --- | --- | --- | --- | --- | --- | --- | --- | --- | --- | --- | --- | --- | --- | --- |
| C[C@H](NC(=O)[C@H](N)C1Cc2ccccc2C1)C(=O)NCc1ccc2c(N)nccc2c1.Cl.Cl [1088_A] | 1.75 | 0 | 0 | 0 | 0 | 0 | 0.4 | 0 | 0 | 0 | 0.39 | 0 | 5.33 | 4.61 | 6.97 | 5.89 | 3.49 | 3.72 | 2.73 | 99.08 | d(CA5,N2) [1]: 5.30; d(N2,C2) [1]: 3.41; a(O1, O2, H4): 149.95; a(O1, O2, H3): 144.04; a(O1, O2, N2): 141.09; a(O2, N2, C2): 141.58; Pharmacophore torsion angle a(H4, O1, O2, H3) [2]: 49.33; Pharmacophore torsion angle a(H4, O1, O2, N2) [2]: 120.82; Pharmacophore torsion angle a(O1, H4, O2, CA1) [2]: −54.60; Pharmacophore torsion angle a(O1, O2, N2, C2) [2]: 103.40; Pharmacophore torsion angle a(O1, O2, N2, CA5) [3]: 116.27; Pharmacophore protein distance to MET_658 (first MET_658 column): 3.04; Pharmacophore protein distance to MET_658 (second MET_658 column): 3.12; Pharmacophore protein distance to GLY_528: 3.66; Pharmacophore protein distance to PHE_529: 2.75; Pharmacophore protein distance to PRO_608: 3.74; Pharmacophore protein distance to SER_611: 2.71; Pharmacophore protein distance to TRP_655: 3.75 |
| C[C@H](NC(=O)[C@H](N)C1Cc2ccccc2C1)C(=O)NCc1ccc2c(N)nccc2c1.Cl.Cl [1088_B] | 1.93 | 0 | 0 | 0 | 0 | 0 | 0.62 | 0.2 | 0 | 0 | 0 | 0 | 5.22 | 4.78 | 6.73 | 6.06 | 3.02 | 3.82 | 2.68 | 99.27 | d(N2,C2) [1]: 3.90; d(N2,CA2) [1]: 6.13; a(O1, O2, H4): 153.40; a(O1, O2, H3): 144.52; a(O1, O2, N2): 135.22; a(O2, N2, C2): 140.65; a(O2, N2, CA2): 154.54; Pharmacophore torsion angle a(H4, O1, O2, H3) [2]: 45.99; Pharmacophore torsion angle a(H4, O1, O2, N2) [2]: 121.15; Pharmacophore torsion angle a(O1, H4, O2, CA1) [2]: −63.34; Pharmacophore torsion angle a(O1, O2, N2, C2) [2]: 129.99; Pharmacophore torsion angle a(O1, O2, N2, CA2) [3]: 134.51; Pharmacophore protein distance to MET_658 (first MET_658 column): 3.04; Pharmacophore protein distance to MET_658 (second MET_658 column): 3.12; Pharmacophore protein distance to GLY_528: 3.66; Pharmacophore protein distance to PHE_529: 2.75; Pharmacophore protein distance to PRO_608: 3.74; Pharmacophore protein distance to SER_611: 2.71; Pharmacophore protein distance to TRP_655: 3.75 |
| C[C@H](NC(=O)[C@H]1C[C@@H](c2ccccc2)CN1)C(=O)NCc1ccc2c(N)nccc2c1.Cl.Cl [1089_A] | 0 | 0 | 0 | 0 | 0 | 0 | 1 | 0.89 | 0 | 0 | 0 | 0 | 5.75 | 5.19 | 3.13 | 3.70 | 3.34 | 5.94 | 2.66 | 98.23 | d(N2,CA2) [1]: 5.10; a(O1, O2, H4): 122.16; a(O1, O2, H3): 153.00; a(O1, O2, N2): 141.72; a(O2, N2, CA2): 154.37; Pharmacophore torsion angle a(H4, O1, O2, H3) [2]: 88.95; Pharmacophore torsion angle a(H4, O1, O2, N2) [2]: −175.67; Pharmacophore torsion angle a(O1, H4, O2, CA1) [2]: −95.88; Pharmacophore torsion angle a(O1, O2, N2, CA2) [3]: 137.41; Pharmacophore protein distance to MET_658 (first MET_658 column): 2.61; Pharmacophore protein distance to MET_658 (second MET_658 column): 3.31; Pharmacophore protein distance to GLY_528: 3.59; Pharmacophore protein distance to PHE_529: 2.81; Pharmacophore protein distance to PRO_608: 3.90; Pharmacophore protein distance to SER_611: 2.79; Pharmacophore protein distance to TRP_655: 3.57 |
